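Each compound was tested at five concentrations against cells in 96-well plates for 48 hours. GI50 marks 50% less growth. TGI denotes the concentration required for complete inhibition of growth.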
Key:
Assay in all cases: NCI anticancer screen, dose series, 48 h
[1] = system: CCRF-CEM leukemia
[2] = system: COLO 205 colon
[3] = system: DU-145 prostate
[4] = system: HCT-116 colon
[5] = system: MOLT-4 leukemia
[6] = system: NCI-H460 lung
[7] = system: NCI-H522 lung
[8] = system: NCI/ADR-RES ovarian
[9] = system: RPMI-8226 leukemia
[10] = system: UO-31 renal

Row | SMILES | GI50 [1] [µM] | TGI [1] [µM] | GI50 [2] [µM] | TGI [2] [µM] | GI50 [3] [µM] | TGI [3] [µM] | GI50 [4] [µM] | TGI [4] [µM] | GI50 [5] [µM] | TGI [5] [µM] | GI50 [6] [µM] | TGI [6] [µM] | GI50 [7] [µM] | TGI [7] [µM] | GI50 [8] [µM] | TGI [8] [µM] | GI50 [9] [µM] | TGI [9] [µM] | GI50 [10] [µM] | TGI [10] [µM]
1 | CS(=O)(=O)CCNCc1ccc(-c2ccc3ncnc(Nc4ccc(OCc5ccccc5)c(C(F)(F)F)c4)c3c2)o1 | 7.29 | > 23.1 | 4.97 | 9.11 | 10.3 | > 25 | 4.27 | 7.88 | 5.77 | 17.9 | 4.8 | 9.34 | 5.02 | 9.94 | 7.03 | > 25 | 7.37 | 18.2 | 5.25 | 17.2
2 | CC1=CC2=C(OCO1)C(=O)c1ccccc1C2=O | – | 45.7 | – | 11.5 | – | 3.67 | – | 19.6 | – | 25.3 | – | 19.1 | – | 8.87 | – | 9.94 | – | > 100 | – | 28.7
3 | Nc1ncc(-c2cnn(C3CCNCC3)c2)cc1-c1nc2ccccc2o1 | 0.235 | 0.677 | 1.55 | 3.05 | 1.75 | 8.86 | 0.616 | 2.03 | 0.361 | 1.32 | 0.998 | 2.54 | 0.757 | 2.4 | 3.47 | 13.4 | 0.857 | 2.7 | 0.714 | 2.35
4 | CCOC(=O)[C@H](CSSc1ncnc2cc[nH]c12)NC(=O)[C@@H](C)c1ccc2cc(OC)ccc2c1 | 0.532 | > 100 | 1.85 | > 100 | 0.213 | > 100 | 0.474 | > 100 | 0.388 | > 100 | 3.04 | > 100 | 0.303 | > 31.5 | 0.687 | > 100 | 0.282 | > 100 | 0.736 | > 100
5 | COc1ccc(-c2cc(-c3ccc(Nc4nc(Nc5ccc(Cl)cc5)nc(Nc5ccc(Cl)cc5)n4)cc3)no2)cc1 | 3.27 | 11.6 | 11.6 | 29.7 | 11.4 | 36.3 | 4.33 | 17.1 | 1.39 | 5.44 | 5.58 | 25.2 | 7.67 | 25.5 | 16.3 | 53.9 | 13.1 | 48.2 | 5.36 | 35.2
6 | COc1cc2c(c(OC)c1OC)-c1ccc(OC)c(=O)cc1[C@@H](NC(=O)CCl)CC2 | < 0.01 | > 33.3 | < 0.01 | < 0.01 | < 0.01 | < 0.01 | < 0.01 | 0.0157 | < 0.01 | > 100 | < 0.01 | 0.585 | < 0.01 | < 0.01 | 0.142 | > 23.2 | < 0.01 | 15.8 | 0.0673 | 45.3
7 | CCCCCCCCCCCCCCCCC1=CC(=O)C=C(OC)C1=O | – | > 100 | – | > 100 | – | > 100 | – | > 100 | – | > 100 | – | > 100 | – | > 100 | – | > 100 | – | > 100 | – | > 100

Source: PubChem BioAssay (NCI)
